From US20250101001A1 (priority 2021, published 2025)

How the values were obtained:
5-HT2A [1] = target: T1, 5-HT2A (Homo sapiens, UniProt P28223); assay: Serotonin 5-HT2A in vitro radioligand binding competition assay ([3H]-DOI); set-up: purchased Epics Therapeutics S. A. (Belgium) FAST-0505B; details: [3H]-DOI competition, membrane extracts
Method: Serotonin 5-HT2A In Vitro Radioligand Binding Competition Assay. The 5-HT2A radioligand binding competition assay was performed at Epics Therapeutics S. A. (Belgium, FAST-0505B) using conventional methods. Briefly, competition binding was performed in duplicate in the wells of a 96 well plate (Master Block, Greiner, 786201) containing binding buffer (optimized for each receptor), membrane extracts (amount of protein/well optimized for each receptor), radiotracer [^3H]-DOI (final concentration optimized for each receptor) and test compound. Nonspecific binding was determined by co-incubation with 200-fold excess of cold competitor. The samples were incubated in a final volume of 0.1 ml at a temperature and for a duration optimized for each receptor and then filtered over filter plates. Filters were washed six times with 0.5 ml of ice-cold washing buffer (optimized for each receptor) and 50 μl of Microscint 20 (Packard) were added in each well. The plates were incubated 15 min on an orbital shaker and then counted with a TopCount™ for 1 min/well.

5-HT2A [2] = target: T1, 5-HT2A; assay: Serotonin 5-HT2A in vitro cellular IPOne agonism assay; assay type: cell-based; set-up: host or cells: CHO-K1; details: CHO-K1 cells, IPOne HTRF, agonist mode
Method: Serotonin 5-HT2A In Vitro Cellular IPOne Agonism Assay. The 5-HT2A IPOne HTRF assay was performed at Epics Therapeutics S.A. (Belgium, FAST-0505I) using conventional methods. Briefly, CHO-K1 cells expressing human recombinant 5-HT2A receptor grown to mid-log phase in culture media without antibiotics were detached with PBS-EDTA, centrifuged, and resuspended in medium without antibiotics buffer. 20,000 cells are distributed in a 96 well plate and incubated overnight at 37° C. with 5% Co2.
For agonist testing, the medium was removed and […] of assay buffer plus 20 μl of test compound or reference agonist were added in each well. The plate was incubated for 60 min. at 37° C. with 5% CO2.
(§1) After addition of the lysis buffer containing IP1-d2 and anti-IP1 cryptate detection reagents, plates were incubated 1-hour at room temperature, and fluorescence ratios were measured according to the manufacturer specification, with the HTRF kit.

5-HT2A [3] = target: T1, 5-HT2A; assay: Serotonin 5-HT2A in vitro cellular IPOne antagonism assay; assay type: cell-based; set-up: host or cells: CHO-K1; details: CHO-K1 cells, IPOne HTRF, reference agonist a-Me-5HT
Method: Serotonin 5-HT2A and 5-HT2C In Vitro Cellular IPOne Antagonism Assay. The 5-HT2A and 5-HT2C IPOne HTRF assay was performed at Epics Therapeutics S.A. (Belgium, FAST-0505I) in antagonism mode using conventional methods. Briefly, CHO-K1 cells expressing human recombinant 5-HT2A or 5-HT2C receptor grown to mid-log phase in culture media without antibiotics were detached with PBS-EDTA, centrifuged, and resuspended in medium without antibiotics buffer. 20,000 cells were distributed in a 96 well plate and incubated overnight at 37° C. with 5% C02.
For antagonist testing, a reference agonist a-Me-5HT was added and fluorescence signal monitored for several minutes, followed by addition of 20 μlof assay buffer plus 20 μl of test compound or reference antagonist ketanserin, in each well. The plate was incubated for 60 min. at 37° C. with 5% CO2.
as §1

5HT2A sensor = assay type: cell-based

T1 sequence (P28223 whole entry): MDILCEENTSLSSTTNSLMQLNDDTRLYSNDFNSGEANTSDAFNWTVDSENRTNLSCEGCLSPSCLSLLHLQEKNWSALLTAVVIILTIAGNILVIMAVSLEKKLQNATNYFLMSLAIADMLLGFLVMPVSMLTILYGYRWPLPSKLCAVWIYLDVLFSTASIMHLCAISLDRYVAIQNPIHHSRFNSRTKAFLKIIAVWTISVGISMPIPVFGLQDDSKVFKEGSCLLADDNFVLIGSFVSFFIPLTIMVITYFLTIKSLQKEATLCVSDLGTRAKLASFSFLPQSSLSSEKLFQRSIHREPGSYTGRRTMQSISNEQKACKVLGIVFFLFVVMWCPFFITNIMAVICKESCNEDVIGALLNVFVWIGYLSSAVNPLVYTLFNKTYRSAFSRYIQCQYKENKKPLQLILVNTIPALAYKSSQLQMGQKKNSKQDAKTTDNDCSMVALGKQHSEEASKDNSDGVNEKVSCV

Work on `Fc1cccc2ccn(C3CNC3)c12` [Compound 26, 1-(azetidin-3-yl)-7-fluoro-1H-indole] yielded an IC50 (5-HT2A [1]) of 1000 to 10000 nM, an EC50 (5-HT2A [2]) of 1000 to 10000 nM and an IC50 (5-HT2A [3]) of 1000 to 10000 nM.
`Fc1ccc2c(ccn2C2CNC2)c1` [Compound 27, 1-(azetidin-3-yl)-5-fluoro-1H-indole] was tested, and the IC50 (5-HT2A [1]) was 101 to 1000 nM, the EC50 (5-HT2A [2]) was > 10000 nM and the IC50 (5-HT2A [3]) was 101 to 1000 nM.
In the case of `CC(C)N1CCC(n2ccc3c(F)c(F)ccc32)C1` (stereo not drawn) [Compound 19, 4,5-difluoro-1-(1-isopropylpyrrolidin-3-yl)-1H-indole], the IC50 (5-HT2A [1]) is reported as 1000 to 10000 nM and the EC50 (5-HT2A [2]) is reported as > 10000 nM.
With `COc1cc(CC(C)N)c(OC)cc1I.Cl` (racemic) [DOI] the “activation of the 5HT2A sensor assay in agonist mode” value (5HT2A sensor) was “activate the 5HT2A sensor assay in agonist mode”.
For `CN1CCC(n2ccc3c(F)c(F)ccc32)CC1` [Compound 10, 4,5-difluoro-1-(1-methylpiperidin-4-yl)-1H-indole], the IC50 (5-HT2A [1]) was 101 to 1000 nM, the EC50 (5-HT2A [2]) was > 10000 nM and the IC50 (5-HT2A [3]) was 101 to 1000 nM.
`Fc1ccc2c(ccn2C2CCN(C3COC3)C2)c1F` (stereo not drawn) [Compound 21, 4,5-difluoro-1-(1-(oxetan-3-yl)pyrrolidin-3-yl)-1H-indole] was tested, and the IC50 (5-HT2A [1]) was > 10000 nM and the EC50 (5-HT2A [2]) was > 10000 nM.
For `Cc1cn(C2CCNCC2)c2ccc(F)cc12` [Compound 3, 5-fluoro-3-methyl-1-(piperidin-4-yl)-1H-indole], the IC50 (5-HT2A [1]) was 101 to 1000 nM, the EC50 (5-HT2A [2]) was > 10000 nM and the IC50 (5-HT2A [3]) was 101 to 1000 nM.
With `Cc1cn(C2CCNC2)c2ccc(F)cc12` (stereo not drawn) [Compound 14, 5-fluoro-3-methyl-1-(pyrrolidin-3-yl)-1H-indole] the IC50 (5-HT2A [1]) was 101 to 1000 nM, the EC50 (5-HT2A [2]) was 101 to 1000 nM and the IC50 (5-HT2A [3]) was 101 to 1000 nM.
In the case of `Cc1ccc2c(ccn2C2CN(C)C2)c1` [Compound 35, 5-methyl-1-(1-methylazetidin-3-yl)-1H-indole], the IC50 (5-HT2A [1]) is reported as 1000 to 10000 nM, the EC50 (5-HT2A [2]) is reported as > 10000 nM and the IC50 (5-HT2A [3]) is reported as 1000 to 10000 nM.
For `Cc1cn(C2CNC2)c2ccc(F)cc12` [Compound 1, 1-(azetidin-3-yl)-5-fluoro-3-methyl-1H-indole], the IC50 (5-HT2A [1]) was 101 to 1000 nM, the EC50 (5-HT2A [2]) was > 10000 nM and the IC50 (5-HT2A [3]) was 1000 to 10000 nM.
For R-MDMA, the “activation of the 5HT2A sensor assay in agonist mode” value (5HT2A sensor) was “do not activate the 5HT2A sensor assay in agonist mode”.
For `Cc1cn(C2CCN(C)C2)c2ccc(F)cc12` (stereo not drawn) [Compound 7, 5-Fluoro-3-methyl-1-(1-methylpyrrolidin-3-yl)-1H-indole], the IC50 (5-HT2A [1]) was 1000 to 10000 nM, the EC50 (5-HT2A [2]) was > 10000 nM and the IC50 (5-HT2A [3]) was 1000 to 10000 nM.
In the case of `N#Cc1ccc2c(ccn2C2CNC2)c1` [Compound 25, 1-(azetidin-3-yl)-1H-indole-5-carbonitrile], the IC50 (5-HT2A [1]) is reported as > 10000 nM, the EC50 (5-HT2A [2]) is reported as > 10000 nM and the IC50 (5-HT2A [3]) is reported as > 10000 nM.
`Fc1ccc2c(ccn2C2CCNCC2)c1F` [Compound 4, 4,5-difluoro-1-(piperidin-4-yl)-1H-indole] was tested, and the IC50 (5-HT2A [1]) was 101 to 1000 nM, the EC50 (5-HT2A [2]) was > 10000 nM and the IC50 (5-HT2A [3]) was 101 to 1000 nM.
With `CCN1CCC(n2ccc3c(F)c(F)ccc32)C1` (stereo not drawn) [Compound 17, 1-(1-ethylpyrrolidin-3-yl)-4,5-difluoro-1H-indole] the IC50 (5-HT2A [1]) was 1000 to 10000 nM, the EC50 (5-HT2A [2]) was > 10000 nM and the IC50 (5-HT2A [3]) was 1000 to 10000 nM.
With `CN1CCC(n2cc(-c3ccccc3)c3cc(F)ccc32)C1` (stereo not drawn) [Compound 12, 5-fluoro-1-(1-methylpyrrolidin-3-yl)-3-phenyl-1H-indole] the IC50 (5-HT2A [1]) was 10 to 100 nM, the EC50 (5-HT2A [2]) was > 10000 nM and the IC50 (5-HT2A [3]) was 10 to 100 nM.
Compound `Fc1ccc2c(ccn2C2CCNC2)c1F` (stereo not drawn) [Compound 15, 4,5-Difluoro-1-(pyrrolidin-3-yl)-1H-indole] has an IC50 (5-HT2A [1]) of 101 to 1000 nM, an EC50 (5-HT2A [2]) of 101 to 1000 nM and an IC50 (5-HT2A [3]) of 101 to 1000 nM.
With `COCCN1CCC(n2ccc3c(F)c(F)ccc32)C1` (stereo not drawn) [Compound 23, 4,5-Difluoro-1-(1-(2-methoxyethyl)pyrrolidin-3-yl)-1H-indole] the IC50 (5-HT2A [1]) was 1000 to 10000 nM, the EC50 (5-HT2A [2]) was > 10000 nM and the IC50 (5-HT2A [3]) was 1000 to 10000 nM.
With `CN1CC(n2ccc3c(F)cccc32)C1` [Compound 32, 4-fluoro-1-(1-methylazetidin-3-yl)-1H-indole] the IC50 (5-HT2A [1]) was 101 to 1000 nM, the EC50 (5-HT2A [2]) was > 10000 nM and the IC50 (5-HT2A [3]) was 101 to 1000 nM.
